The data set is described as follows: pKa of ionizable lipids (Tables 1 to 3). The conditions noted are these: Table 2. Type of data set: physicochemical.

Usually pKa stands for the negative logarithm of the acid dissociation constant. High values mean a group that holds its proton tightly, low ones a group that gives up its proton readily.

`CCCCCCCC(=O)N(CCCN(C)C)C(CCCCCCCCC(=O)OC(CCCCCC)CCCCCC)CCCCCCCCC(=O)OC(CCCCCC)CCCCCC` [II-10]: the pKa was 6.16.
